We go through 11 molecules from patent publication US10005733B2, “N-(4-hydroxy-4-methyl-cyclohexyl)-4-phenyl-benzenesulfonamide and N-(4-hydroxy-4-methyl-cyclohexyl)-4-(2-pyridyl)-benzenesulfonamide compounds and their therapeutic use” (PIMCO 2664 LIMITED, priority 2014, dated 2018).

Molecules are shown by their SMILES.

Assay [1] has as its system J774 macrophages. The assay is described as follows: Resazurin Macrophage J774 Viability Assay. Type of assay: cell-based. The note with it: Mus musculus. On the procedure:
Potency was assessed using a viability assay based on the survival of the J774 macrophage cell line. Macrophages are closely related to osteoclasts and have been used previously as a model system for osteoclast survival (see, e.g., Luckman et al., 1998, “Heterocycle-containing bisphosphonates cause apoptosis and inhibit bone resorption by preventing protein prenylation: evidence from structure-activity relationships in J774 macrophages,” J. Bone Miner. Res., Vol. 13, pp. 1668-1678). The model is indicative both of effects on bone protection in diseases such as osteoporosis, osteoarthritis and rheumatoid arthritis, and of effects on inflammation since, like osteoclasts, J774 macrophages are dependent for survival on continued NFκB activation.
In vitro potency of test compounds was determined by incubation with J774 macrophages and subsequent determination of cell viability using resazurin.
Resazurin is a redox dye commonly used as an indicator of viability in cultured cells (see, e.g., Anoopkumar-Dukie, 2005, “Resazurin assay of radiation response in cultured cells”, British Journal of Radiology, Vol. 78, pp. 945-947). It is non-toxic to cells and stable in culture medium, allowing continuous measurement of cell proliferation in vitro as either a kinetic or endpoint assay. The assay is based on the ability of viable, metabolically-active cells to reduce resazurin (which is blue and non-fluorescent) to resorufin and dihydroresorufin (which are red and fluorescent) using electrons from reducing species, such as nicotinamide […] and flavin adenine dinucleotide (FADH). This transformation, from oxidised form to reduced form, can be measured either colorimetrically or fluorometrically. Insults that impair cell viability and proliferation also affects the capacity of cells to reduce resazurin, and the rate of dye reduction is directly proportional to the number of viable cells present.
For fluorescence measurements, 530-560 nm excitation and 590 nm emission wavelengths are typically used. For colorimetric measurements, absorbance at 570 nm (reduced form) and 600 nm (oxidised form) is typically measured. A simple calculation is performed to determine the relative quantities of the two species: a high ratio of resorufin (the reduced form) to resazurin (the oxidised form) is an indicator that cells are proliferating and viable. A low ratio indicates cells that are quiescent or non-viable.
J774 cells were plated at 10^4 cells per well in 100 μL αMEM (α Modified Eagle Medium) in 96-well plates and allowed to adhere overnight. The following day, test compounds were prepared as 100 mM solutions in DMSO. These stock solutions were diluted in DMSO and then diluted 1000× in culture medium (αMEM) before being added directly to the wells so as to give the desired final compound concentration. After a 72 hour incubation at 37° C./5% CO2, resazurin (Alamar Blue, Biosource International) was added to each well (1:10 v/v, 10 μL). The plate was then incubated at 37° C. for 3 hours and fluorescence was measured at 590 nm, with a 25 nm bandwidth.
The average results for each test compound were expressed as a percent (%) of the average control value reflecting cell viability. The average values across the concentrations tested were then plotted and an IC50 was calculated by fitting the data to a 4-parameter IC50 equation using either Graph Pad Prism software for Windows (Graph Pad Software, San Diego Calif. USA) or Grafit version 5 (Erithacus Software). Each experiment was repeated twice and the data are presented as the mean IC50 from both experiments.

Assay [2] has as its target T1, CYP1A2 (Homo sapiens, UniProt P05177).
T1 construct: purchased Cypex Ltd, Dundee, Scotland UK
T1 sequence (P05177 1-516): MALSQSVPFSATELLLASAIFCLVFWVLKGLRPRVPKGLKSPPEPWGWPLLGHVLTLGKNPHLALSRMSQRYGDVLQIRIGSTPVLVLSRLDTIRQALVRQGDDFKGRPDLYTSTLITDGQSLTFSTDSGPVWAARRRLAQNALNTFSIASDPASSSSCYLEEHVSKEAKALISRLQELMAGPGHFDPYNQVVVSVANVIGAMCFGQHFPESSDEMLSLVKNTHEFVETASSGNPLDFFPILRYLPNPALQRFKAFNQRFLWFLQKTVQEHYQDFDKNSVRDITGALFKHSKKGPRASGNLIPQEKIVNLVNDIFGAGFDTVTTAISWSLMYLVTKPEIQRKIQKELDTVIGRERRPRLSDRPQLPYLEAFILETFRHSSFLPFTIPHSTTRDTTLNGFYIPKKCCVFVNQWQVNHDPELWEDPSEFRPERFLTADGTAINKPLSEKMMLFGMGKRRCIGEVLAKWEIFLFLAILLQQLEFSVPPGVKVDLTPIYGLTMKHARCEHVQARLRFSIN
The assay is described as follows: Human Cytochrome P450 Inhibition Assay (Bactosomes), CYP1A2. Type of assay: in vitro ADME. The note with it: recombinant Bactosomes, probe substrate, 10 minutes at 37° C. On the procedure:
(§1) The ability of test compounds to inhibit five of the most relevant cytochrome P450 enzymes was measured by determination of the activity of cytochrome P450 enzymes in recombinant cytochrome preparations, called Bactosomes (Cypex Ltd, Dundee, Scotland UK DD2 1NH), in the presence of a specific probe substrate. Bactosomes are a highly efficient and cost-effective source of recombinant CYP450s which have a higher specific activity of enzyme compared to other sources, such as liver microsomes. […] The following CYP450 isoforms were assayed: CYP1A2, CYP2C9, CYP2C19, CYP2D6 and CYP3A4. The study of CYP450 inhibition potential in Bactosomes is accepted as a valuable model permitting rapid prediction of potential drug-drug interactions in vivo (see, e.g., Weaver et al., 2003).
(§2) Bactosomes were obtained from a commercial source (Cypex, Scotland, UK). Test compounds were incubated with Bactosomes at 6 concentrations. Samples were incubated for 10 minutes, after which the reaction was stopped and the samples analysed by LC-MS/MS Multiple Reaction Monitoring (MRM) for the presence/amount of substrate probe.
(§3) CYP450 enzymes (final protein 75 pmol/mL for CYP1A2; 12.5 pmol/mL for CYP2C19; and 25 pmol/mL for CYP2C9, 2D6 and 3A4), 0.1 M phosphate buffer pH 7.4, probe and test compound (final concentration 50, 15.8, 5, 1.58, 0.5 and 0.158 μM; diluted from 10 mM stock solution to give a final DMSO concentration of 1%) were pre-incubated at 37° C. for 5 minutes. The reaction was initiated by the addition of 20 μL of 10 mM NADPH in phosphate buffer. The final incubation volume was 200 μL. The following control inhibitors were used for each CYP450 inhibition assay: CYP1A2: α-naphthoflavone; CYP2C9: sulfaphenazole; CYP2C19: tranylcypromine; CYP2D6: quinidine; CYP3A4: ketoconazole.
(§4) Each compound was incubated for 10 minutes at 37° C. The reactions were stopped by the addition of methanol (final composition 1:1, aqueous: methanol). The incubation plates were shaken, chilled at […] for 2 hours, and centrifuged at 3500 rpm for 15 minutes at 4° C. to precipitate the protein.
(§5) IC50 values were determined by linear transformation within Microsoft Excel.

For assay [3], the target named is T2, CYP2C19 (Homo sapiens, UniProt P33261).
T2 construct: purchased Cypex Ltd, Dundee, Scotland UK
The assay is described as follows: Human Cytochrome P450 Inhibition Assay (Bactosomes), CYP2C19. The note with it: recombinant Bactosomes, probe substrate, 10 minutes at 37° C. Type of assay: in vitro ADME. On the procedure:
as §1, §2, §3, §4, §5

The mark [4] stands for this setting: J774, 72 h, footnote (1): 10 point range 30 μM to 1.5 nM, n = 3 per concentration, Grafit, 72 hour incubation.
Setting [5] is: J774, footnote (2): 12 point range 10 μM to 0.5 nM, n = 4 per concentration, GraphPad Prism, average of original and new experiments where replicates increased.

T2 sequence (P33261 whole entry): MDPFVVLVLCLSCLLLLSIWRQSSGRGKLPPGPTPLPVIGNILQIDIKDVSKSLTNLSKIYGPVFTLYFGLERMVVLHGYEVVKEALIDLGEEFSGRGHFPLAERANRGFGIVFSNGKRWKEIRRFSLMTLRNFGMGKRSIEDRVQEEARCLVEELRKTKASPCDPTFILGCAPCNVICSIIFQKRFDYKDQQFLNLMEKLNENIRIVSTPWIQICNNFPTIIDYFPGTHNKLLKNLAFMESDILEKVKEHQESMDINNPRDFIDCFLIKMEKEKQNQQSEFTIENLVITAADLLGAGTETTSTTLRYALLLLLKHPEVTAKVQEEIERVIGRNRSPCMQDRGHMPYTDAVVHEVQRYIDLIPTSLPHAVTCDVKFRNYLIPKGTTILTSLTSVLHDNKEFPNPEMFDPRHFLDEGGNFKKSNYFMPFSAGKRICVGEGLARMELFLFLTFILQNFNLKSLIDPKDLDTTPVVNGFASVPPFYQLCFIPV

For the molecule `O=S(=O)(N[C@H]1CC[C@H](O)CC1)c1ccc(-c2ccc(F)cc2F)cc1` [ABD599, reference compound], the values for the IC50 in assay [1] (setting [4]), in assay [2] and in assay [3] were 0.41 µM, above 25 µM and above 25 µM, respectively.
`Cc1cc(S(=O)(=O)N[C@H]2CC[C@H](O)CC2)ccc1-c1ccc(F)cc1F` [ABD735, reference compound]: the IC50 is 0.07 µM in assay [1] (setting [4]), 0.11 µM in assay [1] (setting [5]), above 25 µM in assay [2] and above 25 µM in assay [3].
Consider `C[C@]1(O)CC[C@@H](NS(=O)(=O)c2ccc(-c3ccc(F)cc3F)cc2)CC1` [ABD899, reference compound], for which the IC50 in assay [1] (setting [4]) is 0.27 µM; in assay [1] (setting [5]), 0.21 µM; in assay [2], above 25 µM; in assay [3], 7.3 µM.
With `C[C@]1(O)CC[C@H](NS(=O)(=O)c2ccc(-c3ccc(F)cc3F)cc2)CC1` [ABD900], the IC50 in assay [1] (setting [4]) was found to be 3.64 µM; in assay [1] (setting [5]), 2.91 µM.
As to `C[C@]1(O)CC[C@H](NS(=O)(=O)c2ccc(-c3ccc(C#N)cc3)c(F)c2)CC1` [HMC-C-07-A, 4′-Cyano-2-fluoro-N-((1r,4r)-4-hydroxy-4-methylcyclohexyl)-[1,1′-biphenyl]-4-sulfonamide], the IC50 was 1.66 µM in assay [1] (setting [5]), above 50 µM in assay [2] and above 50 µM in assay [3].
`C[C@]1(O)CC[C@@H](NS(=O)(=O)c2ccc(-c3ccc(C#N)cc3)c(F)c2)CC1` [HMC-C-07-B, 4′-Cyano-2-fluoro-N-((1s,4s)-4-hydroxy-4-methylcyclohexyl)-[1,1′-biphenyl]-4-sulfonamide]: the IC50 in assay [1] (J774, first column (original replicates, n = 2), footnote (2): 12 point range 10 μM to 0.5 nM, GraphPad Prism) was 0.09 µM; in assay [1] (setting [5]), 0.096 µM; in assay [2] it was above 50 µM; in assay [3], above 50 µM.
With `C[C@]1(O)CC[C@H](NS(=O)(=O)c2ccc(-c3ccc(Cl)cc3C#N)c(F)c2)CC1` [HMC-C-08-A, 4′-Chloro-2′-cyano-2-fluoro-N-((1r,4r)-4-hydroxy-4-methylcyclohexyl)-[1,1′-biphenyl]-4-sulfonamide], the figures for the IC50 in assay [1] (setting [5]), in assay [2] and in assay [3] were 1.25 µM, 27 µM and 30 µM, respectively.
In the case of `C[C@]1(O)CC[C@H](NS(=O)(=O)c2ccc(-c3ccc(C#N)cc3Cl)cc2)CC1` [HMC-C-09-A, 2′-Chloro-4′-cyano-N-((1r,4r)-4-hydroxy-4-methylcyclohexyl)-[1,1′-biphenyl]-4-sulfonamide], the figures for the IC50 in assay [1] (setting [5]), in assay [2] and in assay [3] were 0.69 µM, 23 µM and above 50 µM, respectively.
As for `C[C@]1(O)CC[C@@H](NS(=O)(=O)c2ccc(-c3cc(F)c(F)cc3F)cc2)CC1` [HMC-C-10-B, 2′,4′,5′-Trifluoro-N-((1s,4s)-4-hydroxy-4-methylcyclohexyl)-[1,1′-biphenyl]-4-sulfonamide], the results for the IC50 in assay [1] (setting [5]), in assay [2] and in assay [3] were 0.54 µM, above 16 µM and 8.5 µM, respectively.
`C[C@]1(O)CC[C@H](NS(=O)(=O)c2ccc(-c3ccc(Cl)cc3C#N)c(Cl)c2)CC1` [HMC-C-11-A, 2,4′-Dichloro-2′-cyano-N-((1r,4r)-4-hydroxy-4-methylcyclohexyl)-[1,1′-biphenyl]-4-sulfonamide]: the values for the IC50 in assay [1] (setting [5]), in assay [2] and in assay [3] were 1.46 µM, 11 µM and 5.1 µM, respectively.
The corresponding values for `C[C@]1(O)CC[C@H](NS(=O)(=O)c2ccc(-c3ncc(Cl)cc3C#N)cc2)CC1` [HMC-N-05-A, 4-(5-Chloro-3-cyanopyridin-2-yl)-N-((1r,4r)-4-hydroxy-4-methylcyclohexyl)benzenesulfonamide] are 1.82 µM, 36 µM and above 50 µM.
